Assay results as given in patent US10232021B2, “Calcitonin mimetics for treating diseases and disorders” (KEYBIOSCIENCE AG, priority 2013, dated 2019).
Bridges are numbered along the chain shown (N, C = ends).

Tests used:
[1] = target: T1, Calcitonin Receptor (CTR) (Homo sapiens, UniProt P30988); assay: Competitive ligand binding against 125I-sCT on CTR cells; details: U20S-CALCR cells; 0.1 nM 125I-sCT; 60 min, 37° C.
T1 construct: host or cells: U2OS
T1 sequence (P30988 25-474): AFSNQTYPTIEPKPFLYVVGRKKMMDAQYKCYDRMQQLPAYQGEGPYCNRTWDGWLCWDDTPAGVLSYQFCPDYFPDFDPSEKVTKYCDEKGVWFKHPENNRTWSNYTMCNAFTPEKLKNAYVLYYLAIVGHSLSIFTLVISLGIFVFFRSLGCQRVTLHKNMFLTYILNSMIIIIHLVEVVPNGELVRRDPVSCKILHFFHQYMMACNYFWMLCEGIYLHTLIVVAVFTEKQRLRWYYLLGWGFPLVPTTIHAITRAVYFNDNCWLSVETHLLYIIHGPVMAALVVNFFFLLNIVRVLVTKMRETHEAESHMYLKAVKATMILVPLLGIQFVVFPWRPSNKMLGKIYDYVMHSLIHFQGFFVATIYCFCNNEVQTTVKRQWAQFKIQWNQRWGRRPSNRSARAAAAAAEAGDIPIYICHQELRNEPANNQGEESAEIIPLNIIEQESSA
Text: (§1) The following cell lines expressing the calcitonin, amylin and CGRP receptors were purchased and cultured according to the manufacturer's instructions. • 1. Calcitonin Receptor (CTR): U20S-CALCR from DiscoveRx (Cat. No.: 93-0566C3). • 2. Amylin Receptor (AMY-R): CHO-K1 CALCR+RAMP3 from DiscoveRx (Cat. No.: 93-0268C2). • 3. CGRP Receptor (CGRP-R): CHO-K1 CALCRL+RAMP1 from DiscoveRx (Cat. No.: 93-0269C2).
(§2) Corresponding to the beta-arrestin induction experiments, we performed competitive ligand binding experiments using the cells expressing the CTR and the AMY-R. In studying ligand binding on cells, 15.000 CTR or AMY-R cells were seeded in 96-well plate and cells were treated with 0.1 nM ^125I-conjugated sCT with or without the presence of unlabelled KBP in increasing doses for 60 min at 37° C. After incubation the supernatant was removed and cells were washed twice in 200 μl PBS. The cells were lysed using RIPA‡ buffer (30 mM M NaCl, 50 mM Tris-HCl, 5 mM EDTA, 1% Deoxycholic acid, […], Protease inhibitor tablet mini (1 tablet:10 ml)) and lysates as well were collected for measurement on a γ-counter.

Amylin Receptor (AMY-R) [2] = target: T2, Amylin Receptor (AMY-R) (Homo sapiens, UniProt P30988); assay: Competitive ligand binding against 125I-sCT on AMY-R cells; details: CHO-K1 CALCR+RAMP3 cells; 0.1 nM 125I-sCT; 60 min, 37° C.
T2 construct: host or cells: CHO-K1
T2 sequence (P30988 25-474): T1 sequence (P30988 25-474)
T2 sequence (O60896 24-148 partner): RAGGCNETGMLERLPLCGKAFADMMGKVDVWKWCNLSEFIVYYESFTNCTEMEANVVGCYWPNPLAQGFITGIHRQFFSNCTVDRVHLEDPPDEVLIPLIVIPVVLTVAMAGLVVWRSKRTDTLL
Text: as §1, §2

[3] = Single-dose food intake in obese High-Fat-Diet rats; assay type: in vivo; details: single subcutaneous dose 1.25, 2.5, 5 μg/kg; obese rats fasted overnight
Protocol: Rats were fed a High-Fat-Diet for 14 weeks prior to the experiment to induce obesity.
Further similar studies were undertaken over different time periods and with different peptides and the results are seen in FIG. 10 and FIGS. 11A-11B. The ability of KBP089 to suppress food intake over 72 hours was compared to that of KBP042 as control and the results are seen in FIG. 10.

[4] = Three-week treatment of ZDF rats: fasting plasma glucose and HbA1c; assay type: in vivo, male ZDF (fa/fa) rats; details: 5 μg/kg/day subcutaneously once daily, 3 weeks
Protocol: To assess the effects of the peptides in relation to regulation of blood glucose levels, male ZDF rats, which are the gold standard model of Type 2 Diabetes were treated for 3 weeks with the 3 most promising KBPs (023, 056 and 088) and an active comparator (UGP302/KBP-042). Male ZDF (fa/fa) rats were obtained at the age of 7 weeks from Charles River Laboratories (Kisslegg, Deutschland). All animals were housed at the animal facility at Nordic Bioscience with a constant temperature (21-23° C.) and relative humidity (55-65%) on a 12 h light/dark cycle with free access to Purina 5008 rat chow (Brogaarden, Lynge, Denmark) and tap water. At the age of 8 weeks, the animals were randomized into five groups of 8 rats each based upon fasting blood glucose and body weight (Vehicle (saline), UGP302/KBP-042 5 μg/kg/day, KBP-023 5 μg/kg/day, KBP-056 5 μg/kg/day and KBP-088 5 μg/kg/day) and dosing was done subcutaneously once daily. The animals were treated for a total of 3 weeks to assess the effect of the peptides on fasting blood glucose. Blood glucose was monitored using the Accu-Check® Avia monitoring system (Roche Diagnostics, Rotkreuz, Switzerland) and HbA1c levels by the DCA Vantage™ Analyzer (Siemens Healthcare Diagnostics, Deerfield, Ill.).

Amylin Receptor (AMY-R) [5] = target: T2, Amylin Receptor (AMY-R); assay: PathHunter β-arrestin assay on the amylin receptor; assay type: cell-based; details: CHO-K1 CALCR+RAMP3 cells
Protocol: as §1
In independent bioassays, CTR, AMY-R and CGRP-R cells were treated with for the indicated timepoints with increasing doses of sCT, UGP-302/KBP-042 or the KBPs identified in Table 3 (0, 0.001, 0.01, 0.1, 1, 10, and 100 nM). […]
In this system, the GPCR is fused in frame with the small enzyme fragment ProLink™ and co-expressed in cells stably expressing a fusion protein of β-Arrestin and the larger, N-terminal deletion mutant of β-gal (called enzyme acceptor or EA). […] This interaction leads to an increase in enzyme activity that can be measured using chemiluminescent PathHunter® Detection Reagents.
The assay was performed in white 384 well plates (Greiner Bio-One, 784080). […] To quantify the GPCR-mediated β-arrestin recruitment the Pathhunter™ Detection Kit (93-0001, DiscoverX) was used and assay performed accordingly to the manufacturer's instructions.

competitive binding affinity on the CTR [1]: better than the other ligands
Substance: KBP-088: SEQ ID NO: 12; AcCSNLSTCMLGRLSQELHRLQTFPKTDVGANAP-NH2, Cys1-Cys7 disulphide bridge (Ac-CSNLSTCMLGRLSQELHRLQTFPKTDVGANAP-NH2; disulfide 1-7; SMILES CSCC[C@H](NC(=O)[C@@H]1CSSC[C@H](NC(C)=O)C(=O)N[C@@H](CO)C(=O)N[C@@H](CC(N)=O)C(=O)N[C@@H](CC(C)C)C(=O)N[C@@H](CO)C(=O)N[C@@H]([C@@H](C)O)C(=O)N1)C(=O)N[C@@H](CC(C)C)C(=O)NCC(=O)N[C@@H](CCCNC(=N)N)C(=O)N[C@@H](CC(C)C)C(=O)N[C@@H](CO)C(=O)N[C@@H](CCC(N)=O)C(=O)N[C@@H](CCC(=O)O)C(=O)N[C@@H](CC(C)C)C(=O)N[C@@H](Cc1c[nH]cn1)C(=O)N[C@@H](CCCNC(=N)N)C(=O)N[C@@H](CC(C)C)C(=O)N[C@@H](CCC(N)=O)C(=O)N[C@H](C(=O)N[C@@H](Cc1ccccc1)C(=O)N1CCC[C@H]1C(=O)N[C@@H](CCCCN)C(=O)N[C@H](C(=O)N[C@@H](CC(=O)O)C(=O)N[C@H](C(=O)NCC(=O)N[C@@H](C)C(=O)N[C@@H](CC(N)=O)C(=O)N[C@@H](C)C(=O)N1CCC[C@H]1C(N)=O)C(C)C)[C@@H](C)O)[C@@H](C)O)
competitive binding affinity on the AMY-R (Amylin Receptor (AMY-R) [2]): better than the other ligands, particularly on the AMY-R
food intake, 0-4 hours [3]: led to a reduction in food intake
food intake, 4-24 hours [3]: the effect was maintained to 24 hours
food intake, 24-48 hours [3]: only KBP-089 led to a reduction in food intake
HbA1c [4]: highly active
fasting plasma glucose (FPG) [4]: highly active
activation of the AMY-R (β-arrestin dose-response) (Amylin Receptor (AMY-R) [5]): more potent that the classical AMY-R agonist sCT
